For 20 compounds, IC50, AUC and Cmax results are on record in patent US20260070887A1 (Shenzhen Zhongge Biological Technology Co., Ltd., priority 2022, published 2026).

Like-named read-outs stand apart in the source and are kept apart here. Bounds are passed on as bounds.

One data set addresses KIF18A (Homo sapiens (Human), UniProt Q8NI77). The data set can be described thus: KIF18A ATPase activity under tubulin stimulation (ADP-Glo assay). Type of data set: biochemical. Conditions: KIF18A 30 nM, ATP 150 μM, pig microtubules.
The test system of a further data set is OVCAR-3 cells. The data set can be described thus: OVCAR-3 cell proliferation (Cell Titer-Glo, 10 days). Type of data set: cell-based, human. Summed up: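 IC50 was fitted by nonlinear regression of percent inhibition versus the 0.1% DMSO control. Luminescence was read with Cell Titer-Glo after 10 days of co-culture of logarithmic-phase cells (400/well) with compound at 0.12 nM–10 μM final, in medium with 20% fetal bovine serum and 0.01 mg/mL insulin.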

A further data set is described as follows: PK study in ICR mice. It counts as in vivo, mouse. Particulars: plasma, route and dose not given. The protocol:
6 ICR mice (male/female) were divided into two groups, administered orally and intravenously, respectively, with 3 mice/group. The mice were fasted for 10-14 hours prior to dosing with free access to water.
The test compound was weighed according to the administration dose, and prepared into a dose formulation at appropriate concentrations (for rats and mice, intravenous and oral administration at a volume of 5 mL/kg and 10 mL/kg, respectively), wherein the intravenous injection was a clear solution, and the oral preparation was a clear solution or a homogeneous suspension.
Animals were dosed by intravenous injection and oral gavage, and blood samples were collected at 0.033, 0.083, 0.25, 0.5, 1, 2, 4, 8, and 24 h after intravenous administration and 0.083, 0.25, 0.5, 1, 2, 4, 6, 8, and 24 h after oral administration. Whole blood was centrifuged at 6800 g for 6 min at 4° C. and the top plasma was stored in a −80° C. freezer for later analysis.
The DMSO stock solution of the test compound was diluted into a series of working solutions with a methanol or an acetonitrile solution, and added to a blank plasma matrix, and standard curves were generated and quality control samples were prepared. An appropriate volume of the plasma sample was taken and a suitable multiple of methanol or acetonitrile containing an internal standard was added for protein precipitation based on the response. After centrifugation of all samples at 18000 g for 10 min at 4° C., an appropriate amount of supernatant was taken for LC-MS/MS injection analysis.
Drug concentration-time curves in plasma were plotted according to test concentrations, and pharmacokinetic parameters were calculated using noncompartmental analysis by WinNonlin software, including: half-life (T½), area under the concentration-time curve from time zero to time t (AUCO-t), clearance (CL), volume of distribution at steady state (Vss) and bioavailability (F), with some of the test results shown in Table 4.

[1] abbreviates: both sexes, mouse, read-out: AUC.
The mark [2] stands for this setting: both sexes, mouse, read-out: Cmax.

Sequence of KIF18A (Q8NI77 whole entry): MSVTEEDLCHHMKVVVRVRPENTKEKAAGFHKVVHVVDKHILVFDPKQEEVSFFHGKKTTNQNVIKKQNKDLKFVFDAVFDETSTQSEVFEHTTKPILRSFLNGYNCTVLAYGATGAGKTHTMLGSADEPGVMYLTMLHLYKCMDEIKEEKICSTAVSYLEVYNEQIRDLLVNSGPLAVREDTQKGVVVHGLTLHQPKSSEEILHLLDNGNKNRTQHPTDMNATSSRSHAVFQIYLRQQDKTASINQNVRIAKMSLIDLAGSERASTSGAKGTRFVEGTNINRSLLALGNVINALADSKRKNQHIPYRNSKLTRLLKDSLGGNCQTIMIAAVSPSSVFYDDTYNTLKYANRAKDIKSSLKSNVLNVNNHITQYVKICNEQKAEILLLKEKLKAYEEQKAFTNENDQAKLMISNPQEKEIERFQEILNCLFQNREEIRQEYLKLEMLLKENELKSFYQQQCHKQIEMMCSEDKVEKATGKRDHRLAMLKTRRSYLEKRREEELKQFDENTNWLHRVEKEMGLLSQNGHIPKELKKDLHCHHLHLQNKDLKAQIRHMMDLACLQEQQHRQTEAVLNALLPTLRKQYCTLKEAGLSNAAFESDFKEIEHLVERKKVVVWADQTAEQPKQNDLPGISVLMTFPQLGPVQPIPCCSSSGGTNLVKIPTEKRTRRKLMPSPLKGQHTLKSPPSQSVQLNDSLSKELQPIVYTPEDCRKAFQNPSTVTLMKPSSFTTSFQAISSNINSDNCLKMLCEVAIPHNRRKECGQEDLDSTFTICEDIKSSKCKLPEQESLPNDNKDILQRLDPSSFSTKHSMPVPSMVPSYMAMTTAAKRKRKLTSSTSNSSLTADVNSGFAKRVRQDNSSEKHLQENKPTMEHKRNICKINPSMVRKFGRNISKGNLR
Sequence of KIF18A (P02550 whole entry partner): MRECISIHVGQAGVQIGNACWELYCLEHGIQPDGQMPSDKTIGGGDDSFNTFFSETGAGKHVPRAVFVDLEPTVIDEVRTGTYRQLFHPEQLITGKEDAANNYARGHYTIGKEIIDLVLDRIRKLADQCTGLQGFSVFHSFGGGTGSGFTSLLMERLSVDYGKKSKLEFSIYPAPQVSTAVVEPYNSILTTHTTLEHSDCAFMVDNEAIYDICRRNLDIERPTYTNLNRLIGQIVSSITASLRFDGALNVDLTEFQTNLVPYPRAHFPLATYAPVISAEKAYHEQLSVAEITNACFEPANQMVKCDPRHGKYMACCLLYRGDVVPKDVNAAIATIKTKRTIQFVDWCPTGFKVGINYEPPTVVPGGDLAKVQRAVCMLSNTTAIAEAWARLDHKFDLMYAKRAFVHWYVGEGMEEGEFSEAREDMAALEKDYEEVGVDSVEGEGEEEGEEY
Sequence of KIF18A (P02554 whole entry partner): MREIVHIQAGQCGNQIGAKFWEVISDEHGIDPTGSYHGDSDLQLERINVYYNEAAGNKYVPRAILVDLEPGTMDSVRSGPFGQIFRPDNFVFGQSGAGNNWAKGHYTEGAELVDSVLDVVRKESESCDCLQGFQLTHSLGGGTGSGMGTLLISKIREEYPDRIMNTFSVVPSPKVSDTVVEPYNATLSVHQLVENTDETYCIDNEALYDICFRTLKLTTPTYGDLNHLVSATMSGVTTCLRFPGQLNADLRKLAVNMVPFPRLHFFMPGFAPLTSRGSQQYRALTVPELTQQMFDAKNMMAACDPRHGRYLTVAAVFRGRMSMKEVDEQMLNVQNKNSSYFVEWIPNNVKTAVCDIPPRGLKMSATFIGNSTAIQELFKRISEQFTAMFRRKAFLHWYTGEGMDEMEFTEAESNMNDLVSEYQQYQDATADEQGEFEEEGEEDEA

For the compound `CCOc1ccc(NC(=O)c2ccc(NS(=O)(=O)CCO)cc2N2CCC3(CC2)CC3)c2cc3n(c12)CC(C)(C)OC3` [Example 535, N-(6-ethoxy-3,3-dimethyl-3,4-dihydro-1H-[1,4]oxazino[4,3-a]indol-9-yl)-4-((2-hydroxyethyl)sulfonamido)-2-(6-azaspiro[2.5]octan-6-yl)benzamide], the IC50 against KIF18A was 50 to 500 nM; in the data set with OVCAR-3 cells (Homo sapiens, OVCAR-3, 240 h), not above 50 nM. In “PK study in ICR mice” (setting [1]), the AUC worked out at 101000 ng·h/mL. Further, the Cmax in “PK study in ICR mice” (setting [2]) was found to be 8370 ng/mL.

As for `O=C(Nc1cccc2c1nc1n2CCOC1)c1ccc(NS(=O)(=O)CCO)cc1N1CCC(=C(F)F)CC1` [Example 322, 2-(4-(difluoromethylene)piperidin-1-yl)-N-(3,4-dihydro-1H-benzo[4,5]imidazo[2,1-c][1,4]oxazin-9-yl)-4-((2-hydroxyethyl)sulfonamido)benzamide], the IC50 against KIF18A was not above 50 nM; in the data set with OVCAR-3 cells (Homo sapiens, OVCAR-3, 240 h) it was not above 50 nM. Moreover, the AUC in “PK study in ICR mice” (setting [1]) came out at 12400 ng·h/mL. Moreover, the Cmax in the data set “PK study in ICR mice” (setting [2]) came out at 2420 ng/mL.

As to `CNc1cc(NS(=O)(=O)CCO)cc(N2CCC3(CC2)CC3)c1C(=O)Nc1ccc(OC)c(N2CCC(F)(F)CC2)n1` [Example 491, N-(6-(4,4-difluoropiperidin-1-yl)-5-methoxypyridin-2-yl)-4-((2-hydroxyethyl)sulfonamido)-2-(methylamino)-6-(6-azaspiro[2.5]oct-6-yl)benzamide], the IC50 against KIF18A was 50 to 500 nM; with OVCAR-3 cells (Homo sapiens, OVCAR-3, 240 h) it was not above 50 nM. For the same compound, the AUC in “PK study in ICR mice” (setting [1]) came out at 24800 ng·h/mL. Moreover, the Cmax in the data set “PK study in ICR mice” (setting [2]) stood at 2300 ng/mL.

As to `CC1OCCn2c1cc1c(NC(=O)c3ccc(NS(=O)(=O)CCO)cc3N3CCC4(CC3)CC4)cccc12` (centres unmarked) [Compound 311-P1, 4-((2-hydroxyethyl)sulfonamido)-N-(1-methyl-3,4-dihydro-1H-[1,4]oxazinyl[4,3-a]indol-9-yl)-2-(6-azaspiro[2.5]oct-6-yl)benzamide], the IC50 against KIF18A was not above 50 nM; in the data set with OVCAR-3 cells, 50 to 500 nM.

For the compound `O=C(Nc1ccnc2c1cc1n2CCOC1)c1ccc(NS(=O)(=O)CCO)cc1N1CCC(=C(F)F)CC1` [Compound 401, 2-(4-(difluoromethylene)piperidin-1-yl)-N-(8,9-dihydro-6H-pyrido[3′,2′:4,5]pyrrolo[2,1-c][1,4]oxazin-4-yl)-4-((2-hydroxyethyl)sulfonamido)benzamide], the IC50 against KIF18A was not above 50 nM; in the data set with OVCAR-3 cells (Homo sapiens, OVCAR-3, 240 h) it was 50 to 500 nM.

With `COc1ccc(C(=O)Nc2ccc(NS(=O)(=O)CCO)cc2N2CCC(=C(F)F)CC2)c2cc3n(c12)CC(C)(C)OC3` [Example 566], the results for the IC50 at KIF18A and in the data set with OVCAR-3 cells were not above 50 nM and 50 to 500 nM, respectively.

On to `CC1(C)Cn2c(cc3c(NC(=O)c4ccc(NS(=O)(=O)CCO)cc4N4CCC(=C(F)F)CC4)ccc(F)c32)CO1` [Example 520, 2-(4-(difluoromethylene)piperidin-1-yl)-N-(6-fluoro-3,3-dimethyl-3,4-dihydro-1H-[1,4]oxazino[4,3-a]indol-9-yl)-4-((2-hydroxyethyl)sulfonamido)benzamide], for which the IC50 at KIF18A lay in the range of 50 to 500 nM; in the data set with OVCAR-3 cells (Homo sapiens, OVCAR-3, 240 h), 50 to 500 nM.

Consider `Cc1ccc(NC(=O)c2ccc(NS(=O)(=O)CCO)cc2N2CCC3(CC2)CC3)c2cc3n(c12)CC(C)(C)OC3` [Example 525], for which the IC50 on KIF18A was 50 to 500 nM; with OVCAR-3 cells, not above 50 nM.

As for `CC(C)(O)Cn1ccc2c(NC(=O)c3ccc(NS(=O)(=O)CCO)cc3N3CCC4(CC3)CC4)cccc21` [Example 279, N-(1-(2-hydroxy-2-methylpropyl)-1H-indol-4-yl)-4-((2-hydroxyethyl)sulfonamido)-2-(6-azaspiro[2.5]oct-6-yl)benzamide], the IC50 against KIF18A lay within 50 to 500 nM; with OVCAR-3 cells (Homo sapiens, OVCAR-3, 240 h), 500 to 5000 nM.

For the compound `COc1ccc(NC(=O)c2ccc(NS(=O)(=O)CCO)cc2N2CCC(=C(F)F)CC2)c2cc3n(c12)CCC(F)(F)C3` [Example 477, N-(8,8-difluoro-4-methoxy-6,7,8,9-tetrahydropyridino[1,2-a]indol-1-yl)-2-(4-(difluoromethylene)piperidin-1-yl)-4-((2-hydroxyethyl)sulfonamido)benzamide], the IC50 was 50 to 500 nM against KIF18A and not above 50 nM in the data set on OVCAR-3 cells (Homo sapiens, OVCAR-3, 240 h).

In the case of `O=C(Nc1ccc(OC(F)F)c2c1cc1n2CCC(F)(F)C1)c1ccc(NS(=O)(=O)CCO)cc1N1CCC2(CC1)CC2` [Example 583], the IC50 at KIF18A was 50 to 500 nM; in the data set with OVCAR-3 cells (Homo sapiens, OVCAR-3, 240 h), not above 50 nM. Further, the AUC in “PK study in ICR mice” (setting [1]) was found to be 43300 ng·h/mL. The peak concentration (Cmax) in the data set “PK study in ICR mice” (setting [2]) came to 4410 ng/mL.

For the compound `O=C(Nc1cccc2c1CCN2CC1CC1)c1ccc(NS(=O)(=O)CCO)cc1N1CCC2(CC1)CC2` [Example 5, N-(1-(cyclopropylmethyl)indoline-4-(2-hydroxyethyl)sulfonamido)-2-(6-azaspiro[2.5]octan-6-yl)benzamide], the IC50 was not above 50 nM against KIF18A and 50 to 500 nM in the data set with OVCAR-3 cells.

Turning to `O=C(Nc1cc(F)cc2c1nc1n2CCOC1)c1ccc(NS(=O)(=O)CCO)cc1N1CCC(=C(F)F)CC1` [Example 369, 2-(4-(difluoromethylene)piperidin-1-yl)-N-(7-fluoro-3,4-dihydro-1H-benzo[4,5]imidazo[2,1-c][1,4]oxazin-9-yl)-4-((2-hydroxyethyl)sulfonamido)benzamide], the IC50 against KIF18A was not above 50 nM; with OVCAR-3 cells (Homo sapiens, OVCAR-3, 240 h), 50 to 500 nM.

On to `O=C(Nc1ccc(F)c2c1nc1n2CCOC1)c1ccc(NS(=O)(=O)CCO)cc1N1CCC(=C(F)F)CC1` [Example 323, 2-(4-(difluoromethylene)piperidin-1-yl)-N-(6-fluoro-3,4-dihydro-1H-benzo[4,5]imidazo[2,1-c][1,4]oxazin-9-yl)-4-((2-hydroxyethyl)sulfonamide)benzamide], for which the IC50 against KIF18A and with OVCAR-3 cells was not above 50 nM in each case. This compound also displayed an area under the curve (AUC) in “PK study in ICR mice” of 4113 ng·h/mL. Moreover, the Cmax in “PK study in ICR mice” was determined as 762 ng/mL.

Regarding `CC1(C)Cn2c(cc3c(NC(=O)c4ccc(NS(=O)(=O)CCO)cc4N4CCC5(CC4)CC5)ccc(Cl)c32)CO1` [Example 521, 2-(6-azaspiro[2.5]oct-6-yl)-N-(6-chloro-3,3-dimethyl-3,4-dihydro-1H-[1,4]oxazino[4,3-a]indol-9-yl)-4-{[(2-hydroxyethyl)sulfonamide]}benzamide], the IC50 against KIF18A and in the data set on OVCAR-3 cells was 50 to 500 nM in each case.

On to “N-(1-(cyclopropylmethyl)-1H-indol-4-yl)-4-methoxy-2-(6-azaspiro[2.5]octan-6-yl)benzamide [Example 127]”, for which the IC50 at KIF18A and in the data set with OVCAR-3 cells was not above 50 nM in each case.

In the case of `CCOc1ccc(NC(=O)c2ccc(NS(=O)(=O)CCO)cc2N2CCC(=C(F)F)CC2)c2cc3n(c12)CC(C)(C)OC3` [Example 536, 2-(4-(difluoromethylene)piperidin-1-yl)-N-(6-ethoxy-3,3-dimethyl-3,4-dihydro-1H-[1,4]oxazino[4,3-a]indol-9-yl)-4-((2-hydroxyethyl)sulfonamido)benzamide], the IC50 against KIF18A was in the range of 50 to 500 nM; in the data set on OVCAR-3 cells (Homo sapiens, OVCAR-3, 240 h), 50 to 500 nM.

Turning to `[2H]C([2H])([2H])OC1c2cc3c(NC(=O)c4ccc(NS(=O)(=O)CCO)cc4N4CCC(=C(F)F)CC4)cccc3n2CCC1(F)F` (single isomer, unassigned) [Compound 386-P1, N-(8,8-difluoro-9-(methoxy-d3)-6,7,8,9-tetrahydropyridino[1,2-a]indol-1-yl)-2-(4-(difluoromethylene)piperidin-1-yl)-4-((2-hydroxyethyl)sulfonamido)benzamide], the IC50 at KIF18A and with OVCAR-3 cells was 500 to 5000 nM in each case.

For the compound `CC1(C)Cn2c(cc3c(NC(=O)c4ccc(NS(=O)(=O)CCO)cc4N4CCC5(CC4)CC5)ccc(OC(F)(F)F)c32)CO1` [Example 573], the IC50 was not above 50 nM against KIF18A and 50 to 500 nM in the data set with OVCAR-3 cells (Homo sapiens, OVCAR-3, 240 h).

Consider `O=C(Nc1cccc2c1cc1n2CCC(F)(F)C1)c1ccc(NS(=O)(=O)CCO)cc1N1CCC2(CC1)CC2` [Example 128, 2-(6-azaspiro[2.5]oct-6-yl)-N-(8,8-difluoro-6,7,8,9-tetrahydropyridino[1,2-a]indol-1-yl)-4-{[(2-hydroxyethyl)sulfonamide]}benzamide], for which the IC50 at KIF18A and in the data set with OVCAR-3 cells was not above 50 nM each time.
